Here are results for three compounds from publication PMC5030124 (Nature chemical biology, 2016).

Structures are written as SMILES.

Data set [1] has as its system LNCaP-AR cells. The data set is described as follows: Prostate cancer cell proliferation assay, LNCaP-AR. Conditions: 7 days, increasing doses, no R1881.
For data set [2], the system named is AR target gene expression in LNCaP-AR cells. The experiment in a line: Real-time PCR of AR target genes in LNCaP-AR cells. The class given is cell-based. Conditions: CBs 20 μM, Enz 10 μM; for AR target gene expression, absence of R1881: Bic 10 μM. A general note: Real-time PCR tracks product formation cycle by cycle.
In data set [3] the test system is AR recruitment to KLK3 and NKX3-1 regulatory regions in LNCaP-AR cells. The data set is described as follows: Chromatin immunoprecipitation assay, LNCaP-AR cells. The class given is cell-based. Conditions: Enz 10 μM, Bic 10 μM, 10 20 μM, R1881 0.1 nM.
The nature of data set [4]: in vivo. The conditions noted are these: NSG, mouse, ip.
Data set [5] has as its system AR subcellular distribution in HEK293 cells expressing wt-AR. The experiment in a line: High content imaging of AR N/C ratio, HEK293 cells expressing wt-AR. The conditions noted are these: R1881 0.1 nM, Enz 20 μM, 10 20 μM.
Data set [6] deals with nuclear AR in HEK293 cells expressing wt-AR. The experiment in a line: Cellular fractionation assay, HEK293 cells expressing wt-AR. The class given is cell-based. The conditions noted are these: 4 hours, R1881 0.1 nM.
The subject of data set [7] is AR subcellular distribution in VCaP cells. The experiment in a line: High content imaging of AR N/C ratio, VCaP cells. The conditions noted are these: R1881 0.1 nM, Enz 20 μM, 10 20 μM.

Take `CC(O)(CS(=O)(=O)c1ccc(F)cc1)C(=O)Nc1ccc(C#N)c(C(F)(F)F)c1` (stereo not drawn) [Bic, bicalutamide]: in data set [1], the “cell growth of LNCaP-AR cells” value is “promoted cellular proliferation”. In addition, in data set [2], the “AR target gene expression, absence of R1881” value is “partial agonist”. The “recruitment of AR to DNA (ChIP)” value in data set [3] is “facilitated AR recruitment to DNA”.
Consider `CNC(=O)c1ccc(N2C(=S)N(c3ccc(C#N)c(C(F)(F)F)c3)C(=O)C2(C)C)cc1F` [Enz, enzalutamide], for which the MTD in data set [4] turned out to be 15 mg/kg. For the same compound, the “cell growth of LNCaP-AR cells” value in data set [1] was “without effect”. In addition, in data set [2], the “AR target gene expression, absence of R1881” value is “did not promote AR target gene transcription”. The “AR target gene expression, presence of R1881” value in data set [2] (R1881 0.1 nM) is listed as “reversed androgen-stimulated gene expression”. In data set [3], the “recruitment of AR to DNA (ChIP)” value is “without effect”.
Regarding `C[C@]1(O)CC[C@H]2[C@@H]3CCC4=CC(=O)CCC4=C3C=C[C@@]21C` [R1881], the “AR nuclear-to-cytoplasmic (N/C) ratio” value in data set [5] and in data set [7] was “increase in AR nuclear-to-cytoplasmic (N/C) ratio” each time. For the same compound, in data set [6], the “AR in nuclear and cytoplasmic fractions” value is “movement of AR from the cytoplasmic to nuclear fraction”. In data set [3], the “recruitment of AR to DNA (ChIP)” value is “facilitated AR recruitment to DNA”.
